Assay results taken from patent publication US7671026B2, “Cytomodulating peptides for treating interstitial cystitis” (Sangstat Medical Corporation, priority 2002, dated 2010).

Legend:
TNF-α = assay: Ex vivo LPS-stimulated bladder tissue culture, TNF-α ELISA; type: cell-based, mice; conditions: first study; BALB/c bladder tissue, 1 ug LPS + RDP58 50 uM final, 18 hrs, each pool
Experimental: The ability of RDP58 peptide bc-1nL in inhibiting cytokine production in bladder cells was examined. In a first study, BALB/c mice were euthanized with CO2 and the bladders harvested after voiding it of urine. Bladders were gently washed with RMPI 1640 media containing penicillin and streptomycin and minced into 1-2 mm pieces. Equal amounts of tissue were incubated overnight at 37° C. in 0.5 ml of RPMI culture medium in the presence of 1 ug LPS (E. coli. 055:B5; Sigma), 50 ul of RDP58 peptide (1 mg/ml) (50 uM final concentration), 1 ug LPS+50 ul of RDP58 peptde, or media alone. The culture supernatants were collected after 18 hrs, clarified by centrifugation, and assayed by ELISA for cytokines TNF-αand IFN-γ.
In a second study, bladders from 12 normal mice were harvested, pooled into four sets of three bladders, and the tissues minced into 1-2 mm pieces. Equal amounts of tissue were incubated overnight in culture media containing LPS, RDP58 peptide, LPS+RDP58 peptide, or media, as described above. After clarifying the culture medium by centrifugation, supernatants were assayed for presence of TNF-α by ELISA.

CD3 positive cells = assay: Chronic interstitial cystitis model, CD3/CD45 immunostaining of bladder sections; type: in vivo, mice; conditions: animals exposed to LPS, then RDP58; 24 hrs and 72 hrs after RDP58 treatment
Experimental: Chronic IC model was induced in mice by transurethrally catheterizing mice and instilling with 15 ug of E.coli. lipopolysaccharide (LPS) in 150 ul. Controls were instilled with 150 ul of saline. Animals were treated three times per week for two weeks. To determine the effect of RDP58, animals were instilled with the peptide following 14 days of LPS instillation. Histological analyses of the bladders were carried out 24 or 72 hrs post treatment. Cytokine levels were assayed by removing the bladder 24 hrs following RDP58 treatment, culturing the tissue ex vivo, and assaying for cytokines, as described above. Bladder permeability used the FITC-dextran assay.
Bladder from the various animal groups were removed after the treatments and then sectioned. Morphology was examined by staining with haematoxylin-eosin. Sections were examined for the presence of T-cell differentiation markers CD3 or CD45 by immunostaining with anti-CD45 and anti-CD3 antibodies.

Substance: Arg-nL-nL-nL-Arg-nL-nL-nL-Gly-Tyr [RDP58]
- inhibition of TNF-α production (TNF-α): about 30%
- CD3 positive cells in bladder tissue sections (CD3 positive cells): reduction of CD3 positive cells
